Data published in patent US20210161807A1, “IMPLANTABLE DEVICE FOR LOCALIZED DRUG DELIVERY, USES AND MANUFACTURING METHOD THEREOF” (FONDAZIONE ISTITUTO ITALIANO DI TECNOLOGIA, priority 2018, published 2021).

Experiment: Release of docetaxel from the polymer matrix of the device
Type: physicochemical
Conditions: Docetaxel incorporated in the polymer matrix in the form of powder
Excerpt: The selected active ingredient may be appropriately incorporated into the polymer matrix in a form suitable for obtaining a prolonged release of the main active ingredient itself, without affecting the pharmacological activity thereof. For example, the Docetaxel incorporated in the polymer matrix in the form of powder is released up to 60 days after implantation. Longer release times may be easily achieved by incorporating the active ingredient, instead of in the form of powder, in its co-crystalline form. This solid form reduces the rate of dissolution, which is a necessary prerequisite for subsequent diffusion into the space surrounding the implanted device, […].
To study the release profile, the μMESH device and the FLAT counterpart thereof were incubated in 1 ml of phosphate buffered saline (PBS), to mimic and maximize the volume of liquid to which the devices may be exposed in a local application. At different times, the solution was centrifuged at 5000 rpm for 10 min and the supernatant was analyzed using the protocol described above. The results are expressed as a percentage of the cumulative release over time of three samples for each type of device.

release time of active ingredient after implantation: up to 60 days
Structure (SMILES): CC(=O)O[C@@]12CO[C@@H]1C[C@H](O)[C@@]1(C)C(=O)[C@H](O)C3=C(C)[C@@H](OC(=O)[C@H](O)[C@@H](NC(=O)OC(C)(C)C)c4ccccc4)C[C@@](O)([C@@H](OC(=O)c4ccccc4)[C@H]21)C3(C)C [Docetaxel]
